Source: patent US20230372302A1 (priority 2019, published 2023)
“Also recorded” adds a separate entry of the source. Structures can show the parent of a compound that is named as a salt.

How the values were obtained:
[1] = human, in vivo; cited from earlier work
[2] = system: vocal cords and respiratory muscles of rats; settings: rat, in vivo
[3] = system: rat; settings: in vivo; cited from earlier work
[4] = molecular target: T1, recombinant human VMAT2 transporters (Homo sapiens, UniProt Q05940); assay type: binding
T1 construct: expressed in transfected cells; host or cells: HEK-293
T1 sequence (Q05940 whole entry): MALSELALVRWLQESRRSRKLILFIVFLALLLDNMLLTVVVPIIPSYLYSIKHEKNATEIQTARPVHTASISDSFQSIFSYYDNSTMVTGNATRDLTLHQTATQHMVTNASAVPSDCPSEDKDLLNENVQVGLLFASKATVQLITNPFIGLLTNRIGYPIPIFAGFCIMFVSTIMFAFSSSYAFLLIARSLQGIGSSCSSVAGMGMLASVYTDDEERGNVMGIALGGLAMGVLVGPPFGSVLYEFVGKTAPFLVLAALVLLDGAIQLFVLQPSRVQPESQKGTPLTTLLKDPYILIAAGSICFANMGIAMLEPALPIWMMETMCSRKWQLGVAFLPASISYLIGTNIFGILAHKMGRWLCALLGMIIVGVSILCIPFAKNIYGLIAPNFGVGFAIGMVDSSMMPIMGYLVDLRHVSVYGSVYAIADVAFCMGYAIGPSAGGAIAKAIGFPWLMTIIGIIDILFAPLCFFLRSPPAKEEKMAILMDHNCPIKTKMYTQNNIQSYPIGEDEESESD

[5] = molecular target: vesicular monoamine transporter-VMAT (Homo sapiens, UniProt Q05940); test: cell-based
Chain of vesicular monoamine transporter-VMAT (Q05940 whole entry): as above

[6] = system: alpha 1 subtypes (1A, 1B, 1D); assay type: cell-based, human
[7] = system: T2, alpha 1 adrenergic receptor subtypes (1A, 1B, 1D); assay type: binding, human
T2 construct: rows headed: BA at all subtypes; other: subnanomolar range; Ki at alpha 1 adrenergic receptor subtypes; other: result in words

[8] = molecular target: recombinant human alpha 1A adrenergic receptor (ADR1A) (Homo sapiens, UniProt P35348); assay type: binding
[9] = molecular target: T3, recombinant human alpha 1D adrenergic receptor (ADR1D) (Homo sapiens, UniProt P25100)
T3 sequence (P25100 1-572): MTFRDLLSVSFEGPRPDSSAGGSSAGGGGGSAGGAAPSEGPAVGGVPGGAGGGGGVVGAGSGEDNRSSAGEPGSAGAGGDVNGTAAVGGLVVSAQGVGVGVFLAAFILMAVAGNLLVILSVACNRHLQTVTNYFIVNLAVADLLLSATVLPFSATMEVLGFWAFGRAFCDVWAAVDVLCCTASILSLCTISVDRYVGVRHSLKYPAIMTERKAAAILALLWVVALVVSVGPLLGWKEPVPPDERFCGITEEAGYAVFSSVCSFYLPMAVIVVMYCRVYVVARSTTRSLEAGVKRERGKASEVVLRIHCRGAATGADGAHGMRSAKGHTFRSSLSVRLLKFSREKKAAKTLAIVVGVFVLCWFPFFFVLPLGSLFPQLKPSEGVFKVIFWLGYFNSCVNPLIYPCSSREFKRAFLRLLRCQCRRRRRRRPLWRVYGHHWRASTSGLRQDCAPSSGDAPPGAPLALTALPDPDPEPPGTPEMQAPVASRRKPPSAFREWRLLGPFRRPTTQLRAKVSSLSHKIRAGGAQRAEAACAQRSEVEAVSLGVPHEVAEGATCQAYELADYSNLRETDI

[10] = molecular target: T4, recombinant human alpha 1B adrenergic receptor (ADR1B) (Homo sapiens, UniProt P35368)
T4 sequence (P35368 whole entry): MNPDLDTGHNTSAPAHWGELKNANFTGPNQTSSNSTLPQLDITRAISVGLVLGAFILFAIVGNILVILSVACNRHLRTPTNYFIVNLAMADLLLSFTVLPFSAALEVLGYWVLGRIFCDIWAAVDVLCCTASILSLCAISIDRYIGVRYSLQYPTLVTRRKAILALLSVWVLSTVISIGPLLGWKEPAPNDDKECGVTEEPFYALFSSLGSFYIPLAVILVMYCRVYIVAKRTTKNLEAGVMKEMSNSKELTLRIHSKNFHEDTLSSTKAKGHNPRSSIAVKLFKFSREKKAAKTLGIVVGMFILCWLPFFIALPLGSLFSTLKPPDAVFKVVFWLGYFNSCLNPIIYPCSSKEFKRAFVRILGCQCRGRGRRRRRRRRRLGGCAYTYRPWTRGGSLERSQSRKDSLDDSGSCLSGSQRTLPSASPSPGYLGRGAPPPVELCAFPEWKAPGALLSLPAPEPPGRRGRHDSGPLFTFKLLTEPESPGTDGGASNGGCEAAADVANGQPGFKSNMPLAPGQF

[11] = system: VC and laryngeal muscles/laryngospasm; settings: rat, in vivo; cited from earlier work
[12] = system: neuromuscular blockade; settings: human, in vivo; cited from earlier work
[13] = molecular target: T3, recombinant human alpha 1D adrenergic receptor (ADR1D); test: biochemical
[14] = molecular target: T4, recombinant human alpha 1B adrenergic receptor (ADR1B); test: biochemical
[15] = molecular target: T5, α-1 adrenergic receptor 1A subtype (Homo sapiens, UniProt P35348); settings: cited from earlier work
T5 sequence (P35348 1-466): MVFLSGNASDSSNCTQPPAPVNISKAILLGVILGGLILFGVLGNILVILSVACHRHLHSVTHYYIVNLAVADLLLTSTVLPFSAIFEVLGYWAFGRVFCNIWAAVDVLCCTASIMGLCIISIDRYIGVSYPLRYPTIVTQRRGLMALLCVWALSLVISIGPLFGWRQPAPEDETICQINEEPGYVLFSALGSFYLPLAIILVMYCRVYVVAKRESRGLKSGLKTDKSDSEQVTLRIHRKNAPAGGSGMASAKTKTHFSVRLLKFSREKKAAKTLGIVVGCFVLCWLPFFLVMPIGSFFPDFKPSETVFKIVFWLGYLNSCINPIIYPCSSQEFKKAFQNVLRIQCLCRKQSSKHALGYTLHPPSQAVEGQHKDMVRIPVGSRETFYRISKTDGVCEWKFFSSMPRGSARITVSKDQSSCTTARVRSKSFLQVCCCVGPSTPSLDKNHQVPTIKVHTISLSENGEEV

C[C@H](Cc1cc2c(c(C(N)=O)c1)N(CCCO)CC2)NCCOc1ccccc1OCC(F)(F)F [SILODOSIN, (3-Hydroxypropyl)-5-[(2R)-2-({2-[2-(2,2,2trifluoroethoxy)phenoxy]ethyl}amino)propyl]-2,3-d hydro-1H-indole-7-carboxamide]
dizziness and orthostatic hypotension [1]: 3%
subjects with syncope [1]: 1/897

COC(=O)[C@H]1[C@@H](OC(=O)c2ccccc2)C[C@@H]2CC[C@H]1N2C [cocaine]
vocal cord closure and chest wall rigidity effect (specific to F/FA) [2]: not demonstrated
LD85 [3]: 70 mg/kg

CC(=O)Oc1ccc2c3c1O[C@H]1[C@@H](OC(C)=O)C=C[C@H]4[C@@H](C2)N(C)CC[C@@]341 [heroin]
vocal cord closure and chest wall rigidity effect (specific to F/FA) [2]: not demonstrated

CN[C@@H](C)Cc1ccccc1 [methamphetamine]
vocal cord closure and chest wall rigidity effect (specific to F/FA) [2]: not demonstrated
LD90 [3]: 100 mg/kg
binding to VMAT2 transporter [4]: bind to recombinant human VMAT2 transporters
IC50 [5]: ~4000 nM

CN1CC[C@]23c4c5ccc(O)c4O[C@H]2[C@@H](O)C=C[C@H]3[C@H]1C5 [morphine]
act as antagonists at all alpha 1 subtypes [6]: not morphine
binding at alpha 1 adrenergic receptor subtypes [7]: not morphine; also recorded: neither morphine (MSO4) or naloxone had any notable or relevant binding activity
binding at alpha 1A (bind all alpha 1 subtypes) [8]: not morphine or naloxone bind
binding at alpha 1D (bind all alpha 1 subtypes) [9]: not morphine or naloxone bind
binding at alpha 1B (bind all alpha 1 subtypes) [10]: not morphine or naloxone bind

C=CCN1CC[C@]23c4c5ccc(O)c4O[C@H]2C(=O)CC[C@@]3(O)[C@H]1C5.Cl [naloxone, 17-Allyl-4,5α-epoxy-3,14-dihydroxymorphinan-6-one hydrochloride]
binding at alpha 1 adrenergic receptor subtypes [7]: neither morphine (MSO4) or naloxone had any notable or relevant binding activity
impact on the effects of F on VC and laryngeal muscles/laryngospasm [11]: minimal impact

NC[C@H](O)c1ccc(O)c(O)c1 [norepinephrine]
binding at the 1D subtype over 1A and 1B receptor subtypes, respectively [9]: 9-20 fold

C=CC[N+]1([C@H]2C[C@H]3[C@@H]4CC[C@H]5C[C@H](O)[C@@H](N6CCOCC6)C[C@]5(C)[C@H]4CC[C@]3(C)[C@H]2OC(C)=O)CCCC1 [rocuronium bromide, 1-[17β-(acetyloxy)-3α-hydroxy-2β-(4-morpholinyl)-5α-androstan-16β-yl]-1-(2-propenyl)pyrrolidinium bromide]
time to completed intubation in most patients [12]: ≤ 2 min
time to excellent or good intubating conditions in most patients [12]: less than 2 minutes
time to maximum blockade in most patients [12]: less than 3 minutes
time to neuromuscular block sufficient for intubation (80% block or greater), median (range) [12]: 1 (0.4-6) minute(s)

C[N+](C)(C)CCOC(=O)CCC(=O)OCC[N+](C)(C)C [succinylcholine]
onset of effect given intramuscularly [12]: 2 to 3 min
persistence of maximum blockade [12]: about 2 minutes
recovery time after maximum blockade [12]: 4 to 6 min
time until neuromuscular blockade develops [12]: about 1 minute

CCOc1ccccc1OCCN[C@H](C)Cc1ccc(OC)c(S(N)(=O)=O)c1 [tamsulosin, (−)-(R)-5-[2-[[2-(o-Ethoxyphenoxy)ethyl]amino]propyl]-2-methoxybenzenesulfon-amide, monohydrochloride]
Ki [13]: < 1 nM
Ki [14]: < 1 nM
binding affinity at the 1A subtype greater over other α-1 antagonists [15]: 12-30 times
